Among the data in ChEMBL document CHEMBL1201862, “PubChem BioAssay data set” (2004) are IC50, AC50 and EC50 values, retold here.

Calls of active or inactive are those of the source.

The target in test [1] is T1, Sentrin-specific protease 8 (Homo sapiens, UniProt Q96LD8).
T1 sequence (Q96LD8 whole entry): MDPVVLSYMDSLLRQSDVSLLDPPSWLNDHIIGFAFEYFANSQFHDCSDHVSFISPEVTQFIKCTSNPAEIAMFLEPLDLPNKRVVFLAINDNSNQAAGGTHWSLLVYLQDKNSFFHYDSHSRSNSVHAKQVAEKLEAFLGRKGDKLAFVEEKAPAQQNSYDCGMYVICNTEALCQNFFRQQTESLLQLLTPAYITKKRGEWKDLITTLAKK
It counts as functional.

The subject of another test is INS1. Kind of test: INS-1E survival protection against cytokine death – cell-based, luminescence, retest, dose response (AID 449756).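 Further: cell death triggered by IL-1 beta plus TNF-alpha plus IFN-gamma mixture; protective hits raise ATP signal compared with cytokine alone wells.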 Format: functional. The following applies: Rattus norvegicus.
Test [2] can be described thus: toxicity toward HepG2 liver cells – cell-based, plate reader, cherry-pick, antagonist series, cytotoxicity control, dose response (AID 743416). It counts as functional.
The nature of test [3]: A549 cell cytotoxicity, dose response, cytotoxicity control, plate reader, cherry-pick, antagonist series (AID 743412). It counts as functional, cell-based.
Test [4] concerns the target T2, Apoptotic protease-activating factor 1 (Homo sapiens, UniProt O14727).
T2 sequence (O14727 whole entry): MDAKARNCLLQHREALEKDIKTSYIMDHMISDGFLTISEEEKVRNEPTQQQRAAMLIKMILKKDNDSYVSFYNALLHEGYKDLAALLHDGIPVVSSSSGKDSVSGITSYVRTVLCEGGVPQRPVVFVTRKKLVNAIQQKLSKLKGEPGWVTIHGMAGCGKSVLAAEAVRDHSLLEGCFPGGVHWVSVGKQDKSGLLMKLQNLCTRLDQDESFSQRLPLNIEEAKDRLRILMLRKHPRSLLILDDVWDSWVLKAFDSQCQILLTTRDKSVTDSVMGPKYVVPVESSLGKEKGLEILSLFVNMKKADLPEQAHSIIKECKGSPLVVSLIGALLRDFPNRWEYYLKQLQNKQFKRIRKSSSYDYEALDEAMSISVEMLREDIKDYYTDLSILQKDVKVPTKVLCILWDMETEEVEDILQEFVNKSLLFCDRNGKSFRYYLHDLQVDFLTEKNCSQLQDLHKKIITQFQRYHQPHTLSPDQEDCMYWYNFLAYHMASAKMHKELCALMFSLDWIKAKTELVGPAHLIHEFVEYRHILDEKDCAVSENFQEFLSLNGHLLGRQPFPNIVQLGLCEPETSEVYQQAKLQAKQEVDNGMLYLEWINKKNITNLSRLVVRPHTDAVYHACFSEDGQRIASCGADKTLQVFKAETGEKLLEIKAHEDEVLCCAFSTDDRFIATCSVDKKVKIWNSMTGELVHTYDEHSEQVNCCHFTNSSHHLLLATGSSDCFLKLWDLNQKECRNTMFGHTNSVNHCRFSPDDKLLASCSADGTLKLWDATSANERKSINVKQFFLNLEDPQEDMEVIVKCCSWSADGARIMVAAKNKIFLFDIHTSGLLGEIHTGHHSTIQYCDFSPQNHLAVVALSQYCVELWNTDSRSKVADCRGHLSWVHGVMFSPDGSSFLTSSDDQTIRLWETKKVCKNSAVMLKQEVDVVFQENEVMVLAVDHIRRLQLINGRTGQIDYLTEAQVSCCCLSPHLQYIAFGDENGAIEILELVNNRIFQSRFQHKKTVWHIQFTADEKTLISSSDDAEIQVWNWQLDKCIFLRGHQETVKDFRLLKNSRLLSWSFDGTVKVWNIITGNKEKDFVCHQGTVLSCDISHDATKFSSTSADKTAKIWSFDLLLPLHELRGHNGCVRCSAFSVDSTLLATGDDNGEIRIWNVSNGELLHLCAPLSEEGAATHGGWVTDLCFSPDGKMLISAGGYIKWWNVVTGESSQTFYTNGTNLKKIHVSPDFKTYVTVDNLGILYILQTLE
It counts as functional.

Test [5] can be described thus: viability loss in HEK293 cells – cell-based, plate reader, cherry-picked samples, cytotoxicity control, dose response (AID 743446). Format: functional.
The target of test [6] is T1, Sentrin-specific protease 8. Format: functional. This is another data set of the same source.
A short description of test [7]: viability inhibitors of stage V gametocytes – luminescence, dose response (AID 1117278).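 Further: gametocytes exposed to compound for 24 hours.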 It counts as functional, cell-based.
Test [8] in a line: viability loss in human Jurkat cells – cell-based, luminescence, cytotoxicity control for P. falciparum gametocyte viability project, dose response (AID 1117277).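 Further: potency reflects loss of cellular ATP meaning fewer viable cells.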 It counts as functional.
Another test deals with Prothrombin (Homo sapiens, UniProt P00734). Kind of test: Thrombin 1536 HTS Dose Response Confirmation. [Related pubchem assays: 1046 (Thrombin 1536 HTS; hits were confirmed in this assay)]. It counts as functional.
Test [9] addresses Luciferin 4-monooxygenase (Photinus pyralis, UniProt P08659). Briefly: Counter Screen for Luciferase-based Assay Positives. [Related pubchem assays: 620, 618, 411 ].
The test system of another test is HT-1080. Kind of test: HT1080 cell viability loss – fluorescence readout (AID 620). Format: functional, cell-based. The following applies: Homo sapiens.
Test [10] is described as follows: HPDE-C7 pancreatic duct cell viability loss – fluorescence, HTS (AID 430). Format: functional, cell-based. The following applies: Homo sapiens.
Test [11] in a line: viability loss of HPDE-C7K cells – cell-based, fluorescence, HTS, primary screen (AID 431). The following applies: Homo sapiens. Format: functional.

Chain of Luciferin 4-monooxygenase (P08659 whole entry): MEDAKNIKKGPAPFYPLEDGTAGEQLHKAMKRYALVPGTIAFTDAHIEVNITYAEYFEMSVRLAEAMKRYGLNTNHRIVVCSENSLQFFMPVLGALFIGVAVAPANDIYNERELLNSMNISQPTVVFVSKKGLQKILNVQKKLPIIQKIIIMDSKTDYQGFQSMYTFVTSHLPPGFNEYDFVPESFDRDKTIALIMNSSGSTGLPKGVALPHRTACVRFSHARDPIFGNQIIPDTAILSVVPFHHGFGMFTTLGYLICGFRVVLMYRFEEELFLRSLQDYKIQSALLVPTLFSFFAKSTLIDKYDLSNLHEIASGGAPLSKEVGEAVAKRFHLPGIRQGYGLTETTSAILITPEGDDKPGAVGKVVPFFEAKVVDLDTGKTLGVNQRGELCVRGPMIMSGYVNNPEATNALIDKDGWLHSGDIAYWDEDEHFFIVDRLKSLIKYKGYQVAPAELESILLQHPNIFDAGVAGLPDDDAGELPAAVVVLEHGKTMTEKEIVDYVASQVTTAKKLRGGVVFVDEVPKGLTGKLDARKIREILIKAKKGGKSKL

As to `CCCCOc1cc(NCc2ccccc2)c2ncn(C(C)C)c2c1`, the IC50 in test [1] is 12.2 µM (active); in [4], 13.4 µM (active); in test [6] it was 12.9 µM (active). The AC50 was 8.11 µM (active) in the test on INS1, 20.3 µM (active) in [2], 17.3 µM (active) in [3] and > 52 µM (inactive) in [5].

On to `O=C(COC(=O)c1cncc(Br)c1)NC1CCCCCC1`, for which the IC50 was > 109 µM (inactive) in test [7] and > 83.3 µM (inactive) in test [8].

With `CN(C)c1ccc(NC(=O)c2ccc(Cn3cc([N+](=O)[O-])cn3)cc2)cc1`, the values for the IC50 (in test [6]; at Prothrombin) were 23.2 µM (active) and > 50 µM (not active), respectively.

Take `Cc1c(C(=O)N2CCC(C(N)=O)CC2)sc(N)c1C#N`: at Prothrombin, the IC50 is on record as > 50 µM (not active).

Consider `COc1ccc(-c2cn3nc4c(nc3n2)CCCC4)cc1`, for which the EC50 in [9] is 0.46 µM (active); in the test with HT-1080 it was > 50 µM (not active).

`O=C(CSc1nnc2c3c4c(sc3ncn12)CCCC4)NCc1ccco1`: the EC50 was > 20 µM (not active) in test [10] and 14.5 µM (active) in test [11].

Take `O=C(COc1cc(Cl)c(Cl)cc1Cl)N1CCN(c2ccccn2)CC1`: the IC50 against Prothrombin was > 50 µM (not active).

Take `COc1ccc(NC(=O)CS(=O)(=O)c2ccccc2)cc1`: the IC50 in test [7] was > 109 µM (inactive); in [8] it was > 83.2 µM (inactive).
